Results reported in publication PMC6079014, “Calcium is an essential cofactor for metal efflux by the ferroportin transporter family” (Nature Communications, 2018).

How the values were obtained:
[1] = molecular target: T1, human Fpn (Homo sapiens, UniProt Q9NP59); experiment: 45Ca radiotracer uptake assay in Xenopus oocytes expressing Fpn; format: cell-based; details: 100 μM 45Ca2+, 30 min; vehicle or 50 nl of 50 µM Fe injected
T1 construct: expressed in transfected cells; host or cells: Xenopus laevis oocytes injected with Fpn RNA
T1 sequence (Q9NP59 1-571): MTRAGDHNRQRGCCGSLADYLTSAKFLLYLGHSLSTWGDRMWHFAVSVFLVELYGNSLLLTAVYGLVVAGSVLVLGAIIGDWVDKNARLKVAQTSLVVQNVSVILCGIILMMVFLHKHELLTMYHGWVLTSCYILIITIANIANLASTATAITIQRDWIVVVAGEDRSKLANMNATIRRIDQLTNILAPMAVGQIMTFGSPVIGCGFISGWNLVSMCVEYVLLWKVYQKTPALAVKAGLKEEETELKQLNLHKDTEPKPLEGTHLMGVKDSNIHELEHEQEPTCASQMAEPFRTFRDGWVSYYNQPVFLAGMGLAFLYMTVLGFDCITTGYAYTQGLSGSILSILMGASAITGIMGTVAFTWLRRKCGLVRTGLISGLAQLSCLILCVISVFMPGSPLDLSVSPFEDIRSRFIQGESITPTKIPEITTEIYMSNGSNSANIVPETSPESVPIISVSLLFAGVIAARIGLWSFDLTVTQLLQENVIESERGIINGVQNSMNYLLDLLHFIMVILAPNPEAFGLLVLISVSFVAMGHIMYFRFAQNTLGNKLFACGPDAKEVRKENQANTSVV
Procedure: We performed laparotomy and ovariectomy on adult female Xenopus laevis frogs (Nasco, Fort Atkinson, WI) under 2-aminoethylbenzoate methanesulfonate anesthesia (0.2%, by immersion, to effect) following a protocol approved by the University of Cincinnati Institutional Animal Care and Use Committee. Ovarian tissue was isolated and treated for 3 h with […] collagenase A (Roche Diagnostics Corp., Indianapolis, IN) in calcium-free-modified Barths’ medium (MBM) of composition 88 mM NaCl, 1 mM KCl, 2.4 mM NaHCO3, 1.57 mM MgSO4, 0.66 mM NaNO3, 10 mM 4-(2-hydroxyethyl)-1-piperazineethanesulfonic acid (HEPES), buffered to pH 7.5 by using 2-amino-2-hydroxymethyl-propane-1,3-diol (Tris base). We isolated defolliculate stage V–VI oocytes stored at 17 °C in MBM of composition 88 mM NaCl, 1 mM KCl, 2.4 mM NaHCO3, 0.82 MgSO4, 0.75 mM CaCl2, 0.66 mM NaNO3, 10 mM HEPES, buffered to pH 7.5 by using Tris base, with 50 mg l^−1 ciprofloxacin. We expressed in Xenopus oocytes the 1A transcript form of human Fpn fused at its C-terminus with the enhanced green fluorescent protein (GFP) as described. Oocytes were injected with ∼50 ng of Fpn RNA and incubated for 4–6 days before being used in functional assays. Control oocytes were noninjected.
We measured calcium uptake by using a radiotracer assay. […]

[2] = molecular target: BbFpn D24A (Bdellovibrio bacteriovorus, UniProt Q6MLJ0, D24A); experiment: Isothermal titration calorimetry, D24A BbFpn; format: binding, Bdellovibrio bacteriovorous
Sequence of BbFpn D24A (Q6MLJ0 whole entry D24A): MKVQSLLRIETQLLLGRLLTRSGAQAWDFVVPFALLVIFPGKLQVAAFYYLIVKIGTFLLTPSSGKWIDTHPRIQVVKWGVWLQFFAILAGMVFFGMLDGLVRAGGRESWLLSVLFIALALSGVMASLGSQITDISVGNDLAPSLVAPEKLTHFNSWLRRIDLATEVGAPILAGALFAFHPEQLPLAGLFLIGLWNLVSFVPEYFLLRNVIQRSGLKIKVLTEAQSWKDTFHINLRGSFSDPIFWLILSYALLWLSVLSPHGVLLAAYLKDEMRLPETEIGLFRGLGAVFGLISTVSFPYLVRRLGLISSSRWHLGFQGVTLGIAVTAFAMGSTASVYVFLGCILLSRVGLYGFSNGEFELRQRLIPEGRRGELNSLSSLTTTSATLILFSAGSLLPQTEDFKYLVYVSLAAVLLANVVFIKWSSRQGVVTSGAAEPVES

SMILES: [Ca+2] [Ca^2+, calcium]
- Uptake of 45Ca2+ in oocytes expressing Fpn vs control [1]: neither Fpn expression nor intracellular iron injection stimulated
- Binding to D24A BbFpn by ITC (in words) [2]: complete loss
